Conditions: Liquid

COCC(C)O (stereo not given) [1-methoxy-2-propanol]
Conditions	vapor or sublimation pressure [kPa]
347.62 K	19.25
352.64 K	23.74
353.15 K	24.25
357.89 K	29.35
362.93 K	35.72
363.15 K	36.03
368.03 K	43.29
373.15 K	52.16
373.22 K	52.3
378.01 K	61.89

CN1CCCC1=O [N-methylpyrrolidone]
Conditions	vapor or sublimation pressure [kPa]
352.27 K	1.285
352.48 K	1.297
353.15 K	1.344
359.26 K	1.823
363.15 K	2.193
363.36 K	2.217
368.27 K	2.777
373.09 K	3.444
373.15 K	3.456
377.86 K	4.229

CC(O)CO (stereo not given) [1,2-propanediol]
Conditions	vapor or sublimation pressure [kPa]
393.22 K	8.198
393.25 K	8.207
398.09 K	10.23
403.14 K	12.77
403.15 K	12.77
408.3 K	15.89
413.1 K	19.36
413.15 K	19.39
418.16 K	23.68
423.15 K	28.69
423.26 K	28.81

CCCCCCOCCOCCO [2-(2-hexyloxyethoxy)ethanol]
Conditions	vapor or sublimation pressure [kPa]
402.96 K	1.111
403.01 K	1.117
403.15 K	1.124
408.02 K	1.435
413.15 K	1.831
413.2 K	1.835
418.17 K	2.293
422.87 K	2.825
423.15 K	2.858
